Literature values, collected in patent US20200215022A1, “NOVEL CANNABINOID COMPOSITIONS AND METHODS OF TREATING PEDIATRIC EPILEPSY” (TILRAY, INC., priority 2016, published 2020).

How the values were obtained:
sodium channel = details: human and animal models
CB2 = CB2 (Homo sapiens, UniProt P34972); details: Pacher et al., 2006
CYP2C9 = CYP2C9 (Homo sapiens, UniProt P11712)
CYP2C8 = biological target: T1, CYP2C8 (Homo sapiens, UniProt P10632)
T1 sequence (P10632 1-490): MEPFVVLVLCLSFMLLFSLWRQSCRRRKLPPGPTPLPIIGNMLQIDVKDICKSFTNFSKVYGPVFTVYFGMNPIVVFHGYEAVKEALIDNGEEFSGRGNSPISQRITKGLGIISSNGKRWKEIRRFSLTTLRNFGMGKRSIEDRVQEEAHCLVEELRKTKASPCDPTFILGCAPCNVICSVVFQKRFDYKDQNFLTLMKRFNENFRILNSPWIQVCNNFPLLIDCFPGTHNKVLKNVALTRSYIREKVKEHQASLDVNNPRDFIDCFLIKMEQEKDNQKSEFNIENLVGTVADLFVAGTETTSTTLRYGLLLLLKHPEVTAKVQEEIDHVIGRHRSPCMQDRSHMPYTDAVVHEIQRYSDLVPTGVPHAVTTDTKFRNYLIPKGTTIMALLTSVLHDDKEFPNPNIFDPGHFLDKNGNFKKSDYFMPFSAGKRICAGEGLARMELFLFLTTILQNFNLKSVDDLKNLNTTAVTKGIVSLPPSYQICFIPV

[1] = in vivo
CYP3A4 = CYP3A4 (Homo sapiens, UniProt P08684)
CYP2C19 = CYP2C19 (Homo sapiens, UniProt P33261)
CYP2B6 = biological target: T2, CYP2B6 (Homo sapiens, UniProt P20813)
T2 sequence (P20813 1-491): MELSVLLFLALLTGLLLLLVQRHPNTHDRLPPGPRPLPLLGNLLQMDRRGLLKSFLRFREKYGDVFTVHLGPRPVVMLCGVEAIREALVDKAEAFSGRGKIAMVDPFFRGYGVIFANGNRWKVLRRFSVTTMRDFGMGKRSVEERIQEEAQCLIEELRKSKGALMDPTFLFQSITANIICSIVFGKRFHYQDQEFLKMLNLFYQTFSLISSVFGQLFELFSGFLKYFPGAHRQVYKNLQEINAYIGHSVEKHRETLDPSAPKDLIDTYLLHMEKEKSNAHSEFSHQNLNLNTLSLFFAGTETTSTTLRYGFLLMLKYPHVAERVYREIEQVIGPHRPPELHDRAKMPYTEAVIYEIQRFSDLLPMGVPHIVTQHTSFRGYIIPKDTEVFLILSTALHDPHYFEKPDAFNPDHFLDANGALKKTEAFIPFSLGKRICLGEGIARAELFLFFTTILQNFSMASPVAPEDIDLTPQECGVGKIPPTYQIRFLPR

Sequence of CYP3A4 (P08684 whole entry): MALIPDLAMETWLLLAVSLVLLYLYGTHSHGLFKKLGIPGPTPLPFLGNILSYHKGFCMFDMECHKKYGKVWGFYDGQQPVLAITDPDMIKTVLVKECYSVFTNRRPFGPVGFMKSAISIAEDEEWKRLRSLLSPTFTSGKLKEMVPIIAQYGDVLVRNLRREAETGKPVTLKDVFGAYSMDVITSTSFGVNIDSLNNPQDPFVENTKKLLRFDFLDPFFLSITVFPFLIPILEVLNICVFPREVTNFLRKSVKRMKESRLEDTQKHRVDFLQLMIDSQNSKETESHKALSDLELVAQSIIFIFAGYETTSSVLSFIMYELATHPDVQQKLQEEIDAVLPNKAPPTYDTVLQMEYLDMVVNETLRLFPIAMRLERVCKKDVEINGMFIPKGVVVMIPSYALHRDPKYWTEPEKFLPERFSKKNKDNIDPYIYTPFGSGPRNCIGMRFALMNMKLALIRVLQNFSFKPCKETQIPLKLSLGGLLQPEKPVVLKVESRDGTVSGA
Sequence of CYP2C9 (P11712 whole entry): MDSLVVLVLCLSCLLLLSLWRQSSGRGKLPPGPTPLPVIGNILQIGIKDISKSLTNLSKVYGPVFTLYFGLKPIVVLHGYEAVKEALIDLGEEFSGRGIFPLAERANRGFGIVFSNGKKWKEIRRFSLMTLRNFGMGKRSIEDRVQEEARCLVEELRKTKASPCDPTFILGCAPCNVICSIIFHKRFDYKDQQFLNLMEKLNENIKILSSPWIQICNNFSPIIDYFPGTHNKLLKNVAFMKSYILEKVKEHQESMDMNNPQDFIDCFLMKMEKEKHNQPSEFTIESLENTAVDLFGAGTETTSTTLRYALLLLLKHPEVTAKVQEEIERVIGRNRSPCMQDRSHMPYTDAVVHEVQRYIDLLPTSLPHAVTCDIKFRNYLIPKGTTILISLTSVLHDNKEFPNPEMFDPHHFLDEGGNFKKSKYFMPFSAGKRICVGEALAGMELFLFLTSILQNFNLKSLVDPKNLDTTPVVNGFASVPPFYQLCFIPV
Sequence of CB2 (P34972 whole entry, species assumed): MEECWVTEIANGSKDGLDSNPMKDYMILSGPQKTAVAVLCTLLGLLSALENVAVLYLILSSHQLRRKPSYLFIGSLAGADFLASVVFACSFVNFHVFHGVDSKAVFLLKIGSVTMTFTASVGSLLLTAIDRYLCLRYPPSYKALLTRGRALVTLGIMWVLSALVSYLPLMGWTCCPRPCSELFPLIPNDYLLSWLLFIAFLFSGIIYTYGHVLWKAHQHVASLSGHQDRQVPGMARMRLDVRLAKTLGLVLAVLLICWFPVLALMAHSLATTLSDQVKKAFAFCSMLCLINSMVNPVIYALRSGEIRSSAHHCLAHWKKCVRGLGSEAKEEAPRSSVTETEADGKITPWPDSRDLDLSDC
Sequence of CYP2C19 (P33261 whole entry): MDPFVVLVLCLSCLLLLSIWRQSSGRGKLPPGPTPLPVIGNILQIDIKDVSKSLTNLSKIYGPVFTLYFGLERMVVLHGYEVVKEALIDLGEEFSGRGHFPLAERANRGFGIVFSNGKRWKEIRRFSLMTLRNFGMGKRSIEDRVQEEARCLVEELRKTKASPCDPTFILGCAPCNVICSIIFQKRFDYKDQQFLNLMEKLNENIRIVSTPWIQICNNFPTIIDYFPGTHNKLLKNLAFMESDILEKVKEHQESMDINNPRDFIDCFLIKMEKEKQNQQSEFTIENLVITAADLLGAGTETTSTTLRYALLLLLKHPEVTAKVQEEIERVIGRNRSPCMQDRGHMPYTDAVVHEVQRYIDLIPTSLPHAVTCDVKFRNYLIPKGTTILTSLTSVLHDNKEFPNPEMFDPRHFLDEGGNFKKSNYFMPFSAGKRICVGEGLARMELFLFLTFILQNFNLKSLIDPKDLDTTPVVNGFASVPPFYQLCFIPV

Structure (SMILES) | Sodium channel block (sodium channel) | Affinity for cannabinoid receptor CB2 (CB2) | Inhibition of CYP2C9 (CYP2C9) | Inhibition of CYP2C8 (CYP2C8) | Route of excretion [1] | Time CBD levels are detected post administration [1] | Inhibition of CYP3A4 (CYP3A4) | Lipid solubility | Inhibition of CYP2C19 (CYP2C19) | Inhibition of CYP2B6 (CYP2B6)
C=C(C)[C@@H]1CCC(C)=C[C@H]1c1c(O)cc(CCCCC)cc1O [CBD, cannabidiol] | potent sodium channel blockers | does not appear to have a great affinity | potent inhibitor | potent inhibitor | excreted in the urine and feces | up to 8 hours | potent inhibitor | highly lipid soluble | potent inhibitor | potent inhibitor
CCCCCc1cc(O)c(C/C=C(\C)CCC=C(C)C)c(O)c1 [CBG, cannabigerol] | potent sodium channel blockers |  |  |  |  |  |  |  |  | 
